Assay results as given in paper PMC4512978, “Synthesis and evaluation in rats of homologous series of [^18F]-labeled dopamine D2/3 receptor agonists based on the 2-aminomethylchroman scaffold as potential PET tracers” (EJNMMI Research, 2015).

Columns and labels:
[1] = Ex vivo tissue uptake after the PET scan (gamma-counter); assay type: in vivo, Sprague-Dawley rats
Protocol: After the end of the PET scans (i.e., 98 ± 8 min after tracer injection), anesthetized animals were sacrificed by heart extirpation and dissected. Samples of brain and peripheral tissues were taken. All samples were weighed, and their radioactivity was measured in a gamma-counter.

D2/3R = experiment: MicroPET study in rats; assay type: in vivo, Sprague-Dawley rats
Protocol: Animal experiments were performed by licensed investigators in compliance with the Law on Animal Experiments of The Netherlands. The protocol was approved by the Committee on Animal Ethics of the University of Groningen. Young male (10–12 weeks of age, 300–350 g body weight) Sprague-Dawley rats (Harlan, the Netherlands) were used for all experiments. The rats were maintained at a 12-h light/12-h dark regime and were fed standard laboratory chow ad libitum.
Distribution of the radiotracers was studied in rats pre-treated, at random, with physiological saline (controls) or raclopride tartrate (1 mg/kg calculated per raclopride base, equivalent to 2.9 μmol/kg). Saline and raclopride were administered intravenously (1 mL/kg injected volume).
An additional group of saline pre-treated rats, injected with [^11C]raclopride, served as positive controls for D2/3R-specific brain uptake.
Two rats were scanned simultaneously. Before all manipulations, animals were anesthetized with a mixture of isoflurane/air (inhalation anesthesia, 5 % ratio during induction, 2 % at maintenance). Cannulae were placed into the rats’ left femoral arteries and veins; the operation took 45–50 min. The rats were positioned supine inside the camera (Focus 220 microPET, Siemens-Concorde), one above the other with their heads in the camera’s field of view. A 515-s transmission scan with a Co-57 point source was performed. Tracer was injected through the venous cannula as a slow bolus (1 mL volume, 60 s long) using an infusion pump. The second (upper) animal was injected 16 min after the first (lower).
PET acquisition was started during the injection of radioactivity in the first rat. A 106-min long (76 min long in the case of [^11C]raclopride) list-mode acquisition protocol was used for the scan.
List-mode data from the 106-min-long and 76-min-long scans were reframed into, respectively, 90-min-long and 60-min-long dynamic sequences of 6 × 10, 4 × 30, 2 × 60, 1 × 120, 1 × 180, 4 × 300, 3 × 600, and (for 90-min-long scans) 2 × 900 s frames. The data were reconstructed per time frame using an iterative reconstruction algorithm (attenuation-weighted 2-dimensional ordered-subset expectation maximization, provided by Siemens; 4 iterations, 16 subsets; zoom factor 2). Datasets were fully corrected for random coincidences, scatter, and attenuation. Data from the transmission scan were used for attenuation correction. The final datasets consisted of 95 slices, with a slice thickness of 0.8 mm and an in-plane image matrix size of 128 × 128 and pixel size of 0.47 × 0.47 mm.
Reconstructed images were analyzed with Inveon 2.0 software (Siemens Medical Solutions, USA, Inc). Regions of interest (ROIs) were drawn manually on a T2-weighted MRI template of rat brain around the striatum, brainstem, cortex, hippocampus, hypothalamus, thalamus, olfactory bulbs, and cerebellum around the whole brain and around the pituitary gland. The MRI template was co-registered with the PET scan by image fusion. The time-activity curves (TAC) per ROI were determined in Bq/cm^3 units and converted into standardized uptake values (SUVs).
Degree of D2/3R-specific binding of the tracers was characterized by BPND (as given above) or the specific binding ratio (SBR) given as target region activity/cerebellar activity - 1. Both were calculated under control conditions and in response to the raclopride challenge.

[2] = raclopride 1 mg/kg, after PET scan

Compound: Oc1ccc2c(c1)O[C@@H](CNCc1ccc(OCCCC[18F])cc1)CC2 [[^18F]FBu-AMC13, (R)-2-[(4-(4-[^18F]fluorobutoxy)benzylamino)methyl]chroman-7-ol]
- Ex vivo uptake, Adrenal glands ([1]; RAC): 32.1±3.6 SUV
- Ex vivo uptake, Bladder ([1]; RAC): 0.59±0.26 SUV
- Ex vivo uptake, Bone ([1]; RAC): 0.77±0.46 SUV
- Ex vivo uptake, Bone marrow ([1]; RAC): 2.18±0.09 SUV
- Ex vivo uptake, Duodenum ([1]; RAC): 2.70±1.37 SUV
- Ex vivo uptake, Heart ([1]; RAC): 0.36±0.03 SUV
- Ex vivo uptake, Kidney ([1]; RAC): 2.36±0.54 SUV
- Ex vivo uptake, Large intestine ([1]; RAC): 0.46±0.19 SUV
- Ex vivo uptake, Liver ([1]; RAC): 1.99±0.86 SUV
- Ex vivo uptake, Lung ([1]; RAC): 4.26±1.02 SUV
- Ex vivo uptake, Muscle ([1]; RAC): 0.27±0.02 SUV
- Ex vivo uptake, Pancreas ([1]; RAC): 3.54±0.64 SUV
- Ex vivo uptake, Plasma ([1]; RAC): 0.16±0.03 SUV
- Ex vivo uptake, Prostate ([1]; RAC): 1.27±0.40 SUV
- Ex vivo uptake, Small intestine ([1]; RAC): 3.21±3.67 SUV
- Ex vivo uptake, Small intestine content ([1]; RAC): 11.0±11.4 SUV
- Ex vivo uptake, Spleen ([1]; RAC): 2.14±0.20 SUV
- Ex vivo uptake, Stomach ([1]; RAC): 2.19±0.67 SUV
- Ex vivo uptake, Submandibular gland ([1]; RAC): 2.12±0.85 SUV
- Ex vivo uptake, Thymus ([1]; RAC): 1.54±0.12 SUV
- Ex vivo uptake, Urine ([1]; RAC): 1.51±0.95 SUV
- Ex vivo uptake, Adrenal glands ([1]; SAL): 34.5±3.5 SUV
- Ex vivo uptake, Bladder ([1]; SAL): 0.43±0.16 SUV
- Ex vivo uptake, Bone ([1]; SAL): 0.73±0.47 SUV
- Ex vivo uptake, Bone marrow ([1]; SAL): 2.31±1.19 SUV
- Ex vivo uptake, Duodenum ([1]; SAL): 3.24±1.2 SUV
- Ex vivo uptake, Heart ([1]; SAL): 0.50±0.25 SUV
- Ex vivo uptake, Kidney ([1]; SAL): 3.24±0.69 SUV
- Ex vivo uptake, Large intestine ([1]; SAL): 0.60±0.13 SUV
- Ex vivo uptake, Liver ([1]; SAL): 1.49±0.15 SUV
- Ex vivo uptake, Lung ([1]; SAL): 4.85±2.15 SUV
- Ex vivo uptake, Muscle ([1]; SAL): 0.33±0.13 SUV
- Ex vivo uptake, Pancreas ([1]; SAL): 3.78±0.41 SUV
- Ex vivo uptake, Plasma ([1]; SAL): 0.15±0.02 SUV
- Ex vivo uptake, Prostate ([1]; SAL): 0.95±0.17 SUV
- Ex vivo uptake, Small intestine ([1]; SAL): 4.52±5.94 SUV
- Ex vivo uptake, Small intestine content ([1]; SAL): 20.9±31.4 SUV
- Ex vivo uptake, Spleen ([1]; SAL): 2.48±1.27 SUV
- Ex vivo uptake, Stomach ([1]; SAL): 1.90±0.26 SUV
- Ex vivo uptake, Submandibular gland ([1]; SAL): 2.01±0.53 SUV
- Ex vivo uptake, Thymus ([1]; SAL): 2.04±0.27 SUV
- Ex vivo uptake, Urine ([1]; SAL): 0.63±0.53 SUV
- Ex vivo uptake, Brainstem [1, 2]: 1.25 ± 0.14 SUV
- Ex vivo uptake, Cerebellum [1, 2]: 0.73 ± 0.08 SUV
- Ex vivo uptake, Cortex [1, 2]: 1.01 ± 0.11 SUV
- Ex vivo uptake, Hippocampus [1, 2]: 1.21 ± 0.06 SUV
- Ex vivo uptake, Mean brain uptake [1, 2]: 1.03 ± 0.11 SUV
- Ex vivo uptake, Olfactory bulbs [1, 2]: 0.86 ± 0.09 SUV
- Ex vivo uptake, Parietal bone [1, 2]: 0.70 ± 0.18 SUV
- Ex vivo uptake, Pituitary [1, 2]: 2.72 ± 0.77 SUV
- Ex vivo uptake, Rest of brain [1, 2]: 1.10 ± 0.17 SUV
- Ex vivo uptake, Striatum [1, 2]: 1.21 ± 0.14 SUV
- Ex vivo uptake, Thalamus + hypothalamus [1, 2]: 1.07 ± 0.10 SUV
- Ex vivo uptake, Brainstem ([1]; saline, after PET scan): 1.97 ± 0.42 (2) SUV
- Ex vivo uptake, Cerebellum ([1]; saline, after PET scan): 1.11 ± 0.29 (8) SUV
- Ex vivo uptake, Cortex ([1]; saline, after PET scan): 1.50 ± 0.32 (7) SUV
- Ex vivo uptake, Hippocampus ([1]; saline, after PET scan): 1.50 ± 0.25 (6) SUV
- Ex vivo uptake, Mean brain uptake ([1]; saline, after PET scan): 1.56 ± 0.33 SUV
- Ex vivo uptake, Olfactory bulbs ([1]; saline, after PET scan): 1.85 ± 0.64 (3) SUV
- Ex vivo uptake, Parietal bone ([1]; saline, after PET scan): 0.61 ± 0.17 SUV
- Ex vivo uptake, Pituitary ([1]; saline, after PET scan): 3.19 ± 0.29 SUV
- Ex vivo uptake, Rest of brain ([1]; saline, after PET scan): 1.60 ± 0.25 (4) SUV
- Ex vivo uptake, Thalamus + hypothalamus ([1]; saline, after PET scan): 2.07 ± 0.70 (1) SUV
- Ex vivo uptake, Striatum ([1]; saline, after PET scan (98 ± 8 min p.i.)): 1.60 ± 0.33 (5) SUV
- blood-brain barrier penetration (D2/3R; PET in rats): good blood-brain barrier (BBB) penetration
- Brain uptake, peak (D2/3R; PET, 3 min after radiotracer injection, control rats): 0.9 % ID
- Striatum-to-cerebellum uptake ratio (PET) (D2/3R; saline pre-treated rats, peak (45 min post-injection for [^18F]FEt-AMC13 and [^11C]raclopride)): 1.41 ± 0.08
